One data set deals with patients. The following applies: placebo 37 percent, cited from earlier work.
The subject of a further data set is Male C57 mice. As to the kind of experiment: PCP-induced disruption of prepulse inhibition (PPI) of the startle response. The data set is classed as in vivo. The following applies: for minimal effective dose: Mus musculus, 20 minutes prior to PCP 5 mg/kg IP, read-out: Effective Dose, Prepulse Inhibition Testing; for minimum effective dose, Prepulse Inhibition (PPI): reversal of PCP-induced disruption, route not given. The text has this: The phencyclidine (PCP)-induced disruption of pre-pulse inhibition (PPI) has been used to predict efficacy in cognitive impairment and other disorders. In this test, a weaker auditory prestimulus (prepulse) inhibits the reaction of an test organism to a subsequent strong startle stimulus (pulse). Normal PPI functioning in mammals is critical in filtering out irrelevant sensory information, an inhibitory process that is affected in patients with PTSD. A reduction of the cognitive/attention impairment produced in the PPI model can be used as an efficacy measure for compound candidate selection.
For testing of PPI, male C57 mice can be assigned to five dose groups of eight animals per group, and vehicle or test compound can then be administered orally (PO) or subcutaneously (SC) 20 minutes prior to intraperitoneal (IP) administration of vehicle or PCP (5 mg/kg). Ten minutes following PCP administration, the mice are placed into Hamilton-Kinder startle chambers and evaluation of pre-pulse inhibition procedure is performed. Following a five-minute acclimatization period with background white noise (65 decibels), mice were exposed to five different trial types. Trials were presented […] in a quasi-random order, with randomized 5 to 25 second inter-trial intervals. Trials were: stimulus only trial (120 decibel white noise, 50 ms stimulus); two different prepulse+pulse trials in which a 20 ms 5 decibel, or 10 decibel stimuli above a 65 decibel background preceded the 120 decibel pulse by 120 ms; a 10 decibel prepulse without a 120 decibel pulse; and a no stimulus trial, in which only the background noise was presented.
Compounds which are observed to reduce and/or reverse PCP-induced impairment can be selected as candidates for further evaluation. Such reduction is also indicative of memory enhancement, which is also a positive indicator for further development.
Male C57 mice were assigned to five dose groups of eight animals per group, and vehicle or a test compound was administered orally or subcutaneously 20 minutes prior to intraperitoneal administration of vehicle or PCP (5 mg/kg). Ten minutes following PCP administration, the mice were placed into Kinder Scientific startle chambers (Kinder Scientific, Poway, Calif.) and pre-pulse inhibition was evaluated. Following a five-minute acclimatization period with background white noise (65 dB), mice were exposed to five different trial types. Trials were presented in a quasi-random order, with randomized 5 to 25 second inter-trial intervals. The five different trials (presented 10 times each were): stimulus only trial (120 dB white noise, 50 ms stimulus); two different prepulse+pulse trials in which a 20 ms 5 dB or 10 dB stimulus above a 65 dB background preceded the 120 dB pulse by 120 ms; a 10 dB prepulse without a 120 dB pulse; and a no stimulus trial, in which only the background noise was presented.

For a further data set, the system named is C-57 mice. Kind of data set: Conditioned avoidance response (CAR) model. The data set is classed as in vivo. The following applies: models unwanted side effects. The text has this: The Condition Avoidance Responding (CAR, active avoidance) model is a measure of cognitive and attention impairment. It evaluates the disruption of avoidance (increased latency) without disruption of escape (extrapyramidal motor function).
The training of C-57 mice consists of 20 trials with variable inter-trial intervals (trained to 80% Avoidance Criteria). After a one-minute acclimation period, the house light and an acoustic 90 decibel tone (conditioned stimuli) are presented. A response (crossing to dark compartment) within 5 seconds ends the trial and trial is recorded as avoidance response (CAR). […] To avoid shock, animals learn to move from the lighted side of the − chamber to the dark side when the cue is presented (avoidance) or moved when the shock is administered (escape). Compounds that disrupt cognition in the CAR model can be excluded from candidate consideration.
(§1) The present compounds were tested in the conditioned avoidance response (CAR) model and in the Spontaneous Activity model described above.

The subject of the next data set is mice. Kind of data set: Spontaneous Activity model (locomotor activity). The class given is in vivo. As to conditions: models unwanted side effects.
From the text: Ambulatory and non-ambulatory activity can be used to test spontaneous and drug-induced motor activity. The test can be used to profile the potential for a drug to induce hyperactivity or sedation.
In this model, Kinder Scientific photobeam activity monitors are used to record the ambulatory and non-ambulatory motor activity. The monitors track the photobeam breaks made by the animal that are used to calculate the number of ambulatory and fine (non-ambulatory) motor movements. A drug-induced increase in activity can indicate the potential for an adverse event such as hyperactivity. A drug-induced decrease in response can indicate the potential for an adverse event such as sedation. Doses at which no significant change in activity are recorded, and more preferably at which no change in activity are recorded, can be selected for further evaluation.
as §1

Where two headings read alike, the source gives them in different places. Where only a bound is given, the exact number is not on record here.

For `Fc1ccc([C@@H]2CCNC[C@H]2COc2ccc3c(c2)OCO3)cc1` [paroxetine, Paroxetine], the entries for the “patients who responded positively” value with patients (20 mg paroxetine) and in the data set on patients (40 mg paroxetine) were 62% and 54%, respectively.

With `O=C1CCCc2c1ccn2CCCCN1CCN(c2ccc(Cl)cc2Cl)CC1` [Compound J, 1-{4-[4-(2,4-Dichlorophenyl)piperazin-1-yl]butyl}-1,5,6,7-tetrahydroindol-4-one], the minimal effective dose with Male C57 mice (sc, subcutaneous) turned out to be 10 mg/kg.

Take `O=C1CCCc2c1ccn2CCCCN1CCN(c2ccc(Cl)c(Cl)c2)CC1` [Compound H, 1-{4-[4-(3,4-dichlorophenyl)piperazin-1-yl]butyl}-1,5,6,7-tetrahydroindol-4-one]: the minimal effective dose in the data set on Male C57 mice (sc, subcutaneous) turned out to be 1 mg/kg; in the data set with Male C57 mice (oral), 6 mg/kg.

Consider `O=C1CCCc2c1ccn2CCCN1CCN(c2cccc(Cl)c2)CC1` [Compound F, 1-{3-[4-(3-Chlorophenyl)piperazin-1-yl]propyl}-1,5,6,7-tetrahydroindol-4-one], for which, in the data set with Male C57 mice, the “minimum effective dose, Prepulse Inhibition (PPI)” value is on record as 3 mg/kg. The “minimum effective dose, Conditioned Avoidance Response” value in the data set with C-57 mice is on record as >10 mg/kg. Moreover, the “minimum effective dose, Locomotor Activity” value with mice is >3 mg/kg.

`O=C1CCCc2c1ccn2CCCCN1CCN(c2ccc(F)cc2)CC1` [Compound B, 1-{4-[4-(4-Fluorophenyl)piperazin-1-yl]butyl}-1,5,6,7-tetrahydroindol-4-one]: the minimal effective dose in the data set on Male C57 mice (sc, subcutaneous) came out at 1 mg/kg. Besides, the “minimum effective dose, Prepulse Inhibition (PPI)” value with Male C57 mice is on record as 1 mg/kg. Besides, the “minimum effective dose, Conditioned Avoidance Response” value with C-57 mice is reported as >3 mg/kg. For the same compound, in the data set with mice, the “minimum effective dose, Locomotor Activity” value came to 3 mg/kg.

As for `O=C1CCCc2c1ccn2CCN1CCN(c2cccc(C(F)(F)F)c2)CC1` [Compound E, 1-{2-[4-(3-Trifluoromethylphenyl)piperazin-1-yl]ethyl}-1,5,6,7-tetrahydroindol-4-one], the “minimum effective dose, Prepulse Inhibition (PPI)” value in the data set with Male C57 mice was 3 mg/kg. Besides, the “minimum effective dose, Conditioned Avoidance Response” value with C-57 mice is listed as >10 mg/kg. In the data set with mice, the “minimum effective dose, Locomotor Activity” value is >10 mg/kg.

For `O=C1CCCc2c1ccn2CCCCN1CCN(c2cccc(C(F)(F)F)c2)CC1` [Compound D, 1-{4-[4-(3-Trifluoromethylphenyl)piperazin-1-yl]butyl}-1,5,6,7-tetrahydroindol-4-one], the minimal effective dose in the data set on Male C57 mice (sc, subcutaneous) stood at 0.3 mg/kg; with Male C57 mice (oral), 1 mg/kg. Moreover, in the data set on Male C57 mice, the “minimum effective dose, Prepulse Inhibition (PPI)” value came to 0.3 mg/kg. The “minimum effective dose, Conditioned Avoidance Response” value with C-57 mice was determined as 3 mg/kg. For the same compound, the “minimum effective dose, Locomotor Activity” value with mice is listed as 3 mg/kg.

As to `O=C1CCCc2c1ccn2CCCN1CCN(c2ccc(Cl)c(Cl)c2)CC1` [Compound K, 1-{3-[4-(3,4-Dichlorophenyl)piperazin-1-yl]propyl}-1,5,6,7-tetrahydroindol-4-one], the minimal effective dose with Male C57 mice (sc, subcutaneous) was determined as 10 mg/kg.

On to `O=C1CCCc2c1ccn2CCCN1CCN(c2cccc(C(F)(F)F)c2)CC1` [Compound G, 1-{3-[4-(3-Trifluoromethylphenyl)piperazin-1-yl]propyl}-1,5,6,7-tetrahydroindol-4-one], for which the “minimum effective dose, Prepulse Inhibition (PPI)” value with Male C57 mice worked out at 3 mg/kg. The “minimum effective dose, Conditioned Avoidance Response” value in the data set on C-57 mice is >10 mg/kg. Further, the “minimum effective dose, Locomotor Activity” value in the data set with mice was >10 mg/kg.

For the compound `O=C1CCCc2c1ccn2CCCCN1CCN(c2ccc(F)c(Cl)c2)CC1` [Compound I, 1-{4-[4-(3-Chloro-4-fluorophenyl)piperazin-1-yl]butyl}-1,5,6,7-tetrahydroindol-4-one], the minimal effective dose in the data set on Male C57 mice (sc, subcutaneous) turned out to be 1 mg/kg.

In the case of `O=C1CCCc2c1ccn2CCCCN1CCN(c2ccc(Br)cc2)CC1` [Compound C, 1-{4-[4-(4-Bromophenyl)piperazin-1-yl]butyl}-1,5,6,7-tetrahydroindol-4-one], in the data set with Male C57 mice (sc, subcutaneous), the minimal effective dose was 3 mg/kg. Further, the “minimum effective dose, Prepulse Inhibition (PPI)” value in the data set on Male C57 mice came to 3 mg/kg. The “minimum effective dose, Conditioned Avoidance Response” value in the data set with C-57 mice is listed as >10 mg/kg. Further, in the data set with mice, the “minimum effective dose, Locomotor Activity” value was >10 mg/kg.

(Values after US20090156609A1, “TREATMENT OF POST-TRAUMATIC STRESS DISORDER WITH TETRAHYDROINDOLONE ARYLPIPERZAINE COMPOUNDS” (priority 2007, published 2009).)
